The source made the active and inactive calls. No cut-off for these calls is given here. Where a SMILES comes first, the peptide text is derived from it. The star is where a group is joined. X1 = CCCCCCCCCCCCCC(=O)N[C@@H](C*)C(=O)NCCCCCCCC; Myristoyl = CCCCCCCCCCCCCC(=O)*
Experiments:
Toll-like receptor 7 [1] = target: T1, Toll-like receptor 7 (Homo sapiens, UniProt Q9NYK1); assay: Agonist activity at TLR7 in human PBMC cells assessed as stimulation of interferon release; type: functional, cell-based
T1 sequence (Q9NYK1 whole entry): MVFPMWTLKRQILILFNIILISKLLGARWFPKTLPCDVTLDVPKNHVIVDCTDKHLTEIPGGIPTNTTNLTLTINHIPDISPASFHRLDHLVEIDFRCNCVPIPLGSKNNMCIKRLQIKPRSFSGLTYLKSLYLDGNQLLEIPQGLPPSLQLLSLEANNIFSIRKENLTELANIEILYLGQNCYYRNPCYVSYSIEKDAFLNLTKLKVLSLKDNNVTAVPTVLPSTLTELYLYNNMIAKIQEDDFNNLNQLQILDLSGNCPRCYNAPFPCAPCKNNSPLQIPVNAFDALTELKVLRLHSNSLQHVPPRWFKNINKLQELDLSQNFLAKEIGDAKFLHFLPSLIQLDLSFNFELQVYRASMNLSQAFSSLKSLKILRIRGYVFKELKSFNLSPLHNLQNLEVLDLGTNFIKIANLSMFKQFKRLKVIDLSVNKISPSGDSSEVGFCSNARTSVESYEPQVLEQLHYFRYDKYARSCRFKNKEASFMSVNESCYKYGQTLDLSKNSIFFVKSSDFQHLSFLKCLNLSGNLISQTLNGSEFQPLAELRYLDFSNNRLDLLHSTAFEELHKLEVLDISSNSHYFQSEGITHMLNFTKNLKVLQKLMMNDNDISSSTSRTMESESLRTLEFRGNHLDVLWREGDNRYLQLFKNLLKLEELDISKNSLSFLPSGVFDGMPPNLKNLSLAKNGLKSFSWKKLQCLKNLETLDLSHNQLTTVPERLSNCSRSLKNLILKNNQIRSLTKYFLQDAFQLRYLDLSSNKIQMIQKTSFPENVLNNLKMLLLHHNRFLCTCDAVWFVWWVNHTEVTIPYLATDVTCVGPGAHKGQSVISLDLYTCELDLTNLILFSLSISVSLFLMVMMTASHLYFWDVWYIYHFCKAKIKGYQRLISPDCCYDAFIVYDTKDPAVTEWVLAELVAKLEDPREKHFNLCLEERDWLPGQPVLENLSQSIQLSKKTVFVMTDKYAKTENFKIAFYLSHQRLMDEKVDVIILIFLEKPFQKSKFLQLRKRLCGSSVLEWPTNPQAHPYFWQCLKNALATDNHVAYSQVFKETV

Toll-like receptor 7 [2] = target: T1, Toll-like receptor 7; assay: (§1) Agonist activity at human TLR7 by luciferase reporter gene assay; type: functional
Toll-like receptor 2 [3] = target: T2, Toll-like receptor 2 (Homo sapiens, UniProt O60603); assay: Antagonist activity at human TLR2 expressed in HE293 cells co-transfected with pELAM by luciferase reporter gene assay; type: functional, cell-based, HEK293
Homo sapiens = species: Homo sapiens; assay: Selectivity for human TLR2 over human TLR4
Toll-like receptor 2 [4] = target: T2, Toll-like receptor 2; assay: Inhibition of TLR2-mediated IL8 secretion in human THP1 cells; type: cell-based, THP-1
Toll-like receptor 9 = target: T3, Toll-like receptor 9 (Homo sapiens, UniProt Q9NR96); assay: Antagonist activity at human TLR9 expressed in HEK293 cells assessed as blockade of CpG oligonucleotide-induced immune response by NF-kappaB luciferase reporter gene assay; type: functional, cell-based
T3 sequence (Q9NR96 whole entry): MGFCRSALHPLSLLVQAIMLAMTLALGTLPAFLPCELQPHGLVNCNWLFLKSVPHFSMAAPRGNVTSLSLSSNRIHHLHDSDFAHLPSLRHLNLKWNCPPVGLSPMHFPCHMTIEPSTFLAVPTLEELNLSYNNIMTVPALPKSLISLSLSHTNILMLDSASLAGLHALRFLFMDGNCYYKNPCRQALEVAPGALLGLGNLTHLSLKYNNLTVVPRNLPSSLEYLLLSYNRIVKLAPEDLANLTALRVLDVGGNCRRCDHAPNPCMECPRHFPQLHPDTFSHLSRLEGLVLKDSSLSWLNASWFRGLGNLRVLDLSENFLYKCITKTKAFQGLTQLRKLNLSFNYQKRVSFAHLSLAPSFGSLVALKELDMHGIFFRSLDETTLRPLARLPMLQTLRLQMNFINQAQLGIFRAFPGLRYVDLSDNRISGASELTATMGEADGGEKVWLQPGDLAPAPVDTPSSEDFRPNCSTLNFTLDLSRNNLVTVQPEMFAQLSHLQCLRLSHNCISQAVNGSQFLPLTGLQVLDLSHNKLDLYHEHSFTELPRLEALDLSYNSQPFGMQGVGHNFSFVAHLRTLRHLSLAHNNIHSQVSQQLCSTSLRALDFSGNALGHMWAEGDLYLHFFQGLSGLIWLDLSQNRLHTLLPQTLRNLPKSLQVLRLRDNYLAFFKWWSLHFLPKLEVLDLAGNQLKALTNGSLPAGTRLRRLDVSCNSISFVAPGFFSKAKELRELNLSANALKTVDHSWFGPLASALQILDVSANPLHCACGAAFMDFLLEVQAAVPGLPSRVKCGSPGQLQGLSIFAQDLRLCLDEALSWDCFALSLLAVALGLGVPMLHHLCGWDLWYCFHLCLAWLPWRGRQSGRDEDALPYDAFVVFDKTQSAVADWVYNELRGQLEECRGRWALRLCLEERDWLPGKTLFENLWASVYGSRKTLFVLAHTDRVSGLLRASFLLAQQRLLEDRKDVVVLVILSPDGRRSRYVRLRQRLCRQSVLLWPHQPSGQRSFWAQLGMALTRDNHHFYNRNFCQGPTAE

[5] = target: Toll-like receptor 4 (Mus musculus) (UniProt Q9QUK6); assay: Inhibition of mouse TLR4-mediated cytokine production in mouse macrophages
Toll-like receptor 8 [6] = target: T4, Toll-like receptor 8 (Homo sapiens, UniProt Q9NR97); assay: Agonist activity at TLR8 in human PBMC cells assessed as TNFalpha level by ELISA; type: functional, cell-based
T4 sequence (Q9NR97 whole entry): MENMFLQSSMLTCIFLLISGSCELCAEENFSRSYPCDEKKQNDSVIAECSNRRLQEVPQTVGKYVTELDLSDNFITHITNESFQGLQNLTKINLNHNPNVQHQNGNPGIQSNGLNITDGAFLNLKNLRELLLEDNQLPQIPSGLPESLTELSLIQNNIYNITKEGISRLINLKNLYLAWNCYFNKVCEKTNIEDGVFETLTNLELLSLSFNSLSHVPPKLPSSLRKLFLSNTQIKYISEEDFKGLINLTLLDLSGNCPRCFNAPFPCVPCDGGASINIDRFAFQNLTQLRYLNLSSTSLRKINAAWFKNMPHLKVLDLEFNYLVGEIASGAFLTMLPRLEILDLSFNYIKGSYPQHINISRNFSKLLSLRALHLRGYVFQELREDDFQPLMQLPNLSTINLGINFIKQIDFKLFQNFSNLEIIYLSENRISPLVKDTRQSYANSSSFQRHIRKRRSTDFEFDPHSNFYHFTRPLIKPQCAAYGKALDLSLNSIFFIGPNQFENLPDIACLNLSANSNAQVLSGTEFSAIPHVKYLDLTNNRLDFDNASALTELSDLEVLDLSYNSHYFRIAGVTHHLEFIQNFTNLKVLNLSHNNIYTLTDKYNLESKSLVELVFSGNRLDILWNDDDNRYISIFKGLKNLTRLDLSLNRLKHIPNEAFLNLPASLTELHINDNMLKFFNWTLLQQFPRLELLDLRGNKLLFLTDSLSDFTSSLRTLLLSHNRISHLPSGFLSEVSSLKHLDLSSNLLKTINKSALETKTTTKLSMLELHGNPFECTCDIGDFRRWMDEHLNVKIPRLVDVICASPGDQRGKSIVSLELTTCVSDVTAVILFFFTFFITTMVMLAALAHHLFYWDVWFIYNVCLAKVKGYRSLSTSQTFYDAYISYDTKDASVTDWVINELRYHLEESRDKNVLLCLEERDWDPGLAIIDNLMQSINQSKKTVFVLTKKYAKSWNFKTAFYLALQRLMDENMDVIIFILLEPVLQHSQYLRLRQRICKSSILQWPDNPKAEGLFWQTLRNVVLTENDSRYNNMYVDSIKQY

Toll-like receptor 8 [7] = target: T4, Toll-like receptor 8; assay: Agonist activity at human TLR8 expressed in HEK cells by NF-kappaB luciferase reporter gene assay; type: functional, cell-based, HEK293
Toll-like receptor 4 [8] = target: T5, Toll-like receptor 4 (Homo sapiens, UniProt O00206); assay: Antagonist activity at TLR4 in human PBMC cells assessed as suppression of LPS-induced cytokine upregulation; type: functional, cell-based
Toll-like receptor 4 [9] = target: T5, Toll-like receptor 4; assay: Antagonist activity at human TLR4 expressed in HE293 cells by ELAM1-luciferase reporter gene assay; type: functional, cell-based, HEK293
[10] = target: T6, Toll-like receptor 7 (Homo sapiens) (UniProt Q9NYK1); assay: as §1; type: functional
T6 sequence (whole entry): T1 sequence (Q9NYK1 whole entry)

Toll-like receptor 4 [11] = target: T5, Toll-like receptor 4; assay: Antagonist activity at TLR4 in human HL60 cells assessed as inhibition of LPS-induced cytokine production; type: functional, cell-based, HL-60
Toll-like receptor 4 [12] = target: T5, Toll-like receptor 4; assay: Antagonist activity at human TLR4 assessed as inhibition of LPS-induced cytokine production in HL-60 cells

T5 sequence (O00206 whole entry): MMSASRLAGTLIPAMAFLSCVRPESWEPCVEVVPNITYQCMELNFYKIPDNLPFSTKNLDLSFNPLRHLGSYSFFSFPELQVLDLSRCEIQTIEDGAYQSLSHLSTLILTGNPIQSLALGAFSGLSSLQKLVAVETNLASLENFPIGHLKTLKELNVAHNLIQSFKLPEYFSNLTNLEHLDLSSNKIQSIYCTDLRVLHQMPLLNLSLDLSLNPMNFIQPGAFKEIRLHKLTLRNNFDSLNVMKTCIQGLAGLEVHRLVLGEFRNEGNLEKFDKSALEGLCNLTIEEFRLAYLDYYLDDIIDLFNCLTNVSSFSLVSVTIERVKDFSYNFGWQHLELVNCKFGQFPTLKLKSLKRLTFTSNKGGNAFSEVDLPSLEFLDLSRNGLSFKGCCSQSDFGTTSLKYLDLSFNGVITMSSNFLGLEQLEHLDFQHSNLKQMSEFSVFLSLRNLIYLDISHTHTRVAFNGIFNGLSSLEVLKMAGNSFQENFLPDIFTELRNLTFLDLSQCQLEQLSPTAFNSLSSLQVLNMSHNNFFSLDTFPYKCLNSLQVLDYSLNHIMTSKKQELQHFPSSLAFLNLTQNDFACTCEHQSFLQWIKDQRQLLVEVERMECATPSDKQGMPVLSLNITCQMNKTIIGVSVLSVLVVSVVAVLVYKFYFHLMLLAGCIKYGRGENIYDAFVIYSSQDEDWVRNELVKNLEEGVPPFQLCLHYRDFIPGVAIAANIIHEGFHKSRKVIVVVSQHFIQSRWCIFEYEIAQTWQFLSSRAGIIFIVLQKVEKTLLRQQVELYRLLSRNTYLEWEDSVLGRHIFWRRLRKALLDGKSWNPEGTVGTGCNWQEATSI
T2 sequence (O60603 whole entry): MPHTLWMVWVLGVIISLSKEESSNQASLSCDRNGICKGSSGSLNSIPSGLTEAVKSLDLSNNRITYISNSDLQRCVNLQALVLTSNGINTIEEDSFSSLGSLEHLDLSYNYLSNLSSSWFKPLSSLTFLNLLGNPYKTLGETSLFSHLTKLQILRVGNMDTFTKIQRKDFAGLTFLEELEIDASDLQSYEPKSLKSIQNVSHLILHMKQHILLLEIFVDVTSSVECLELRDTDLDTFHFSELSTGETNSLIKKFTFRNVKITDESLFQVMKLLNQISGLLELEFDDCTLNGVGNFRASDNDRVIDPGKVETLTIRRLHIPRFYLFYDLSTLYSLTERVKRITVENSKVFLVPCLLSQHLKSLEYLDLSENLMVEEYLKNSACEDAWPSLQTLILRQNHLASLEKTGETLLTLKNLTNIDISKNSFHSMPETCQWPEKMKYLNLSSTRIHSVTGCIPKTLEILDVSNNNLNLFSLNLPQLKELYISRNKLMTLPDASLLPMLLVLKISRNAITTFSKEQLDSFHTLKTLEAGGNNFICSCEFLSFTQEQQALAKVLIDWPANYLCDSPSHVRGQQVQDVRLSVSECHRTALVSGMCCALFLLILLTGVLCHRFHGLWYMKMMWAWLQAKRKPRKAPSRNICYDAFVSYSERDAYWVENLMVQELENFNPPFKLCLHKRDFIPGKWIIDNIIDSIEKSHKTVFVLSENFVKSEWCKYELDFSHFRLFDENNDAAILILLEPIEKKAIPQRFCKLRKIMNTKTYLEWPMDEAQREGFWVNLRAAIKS

Nc1nc(NCc2ccccc2)nc2c1[nH]c(=O)n2Cc1cccc(CP(=O)(O)O)c1
EC50 (Toll-like receptor 7 [1]): 10 nM | EC50 (Toll-like receptor 7 [2]): 10 nM

CCCCCCCCCCCCCCCCCCCC(=O)N[C@@H](COP(=O)(O)OCCNC(=O)[C@@H](NC(=O)Cc1c[nH]c2ccc(OCc3ccccc3)cc12)[C@@H](C)CC)C(=O)NCCC(O)CCCCCCCCCCCCC (some centres undefined)
IC50 (Toll-like receptor 2 [3]): 240 nM | Selectivity ratio (Homo sapiens): > 25

CCCCCCCCCCCCCC(=O)N[C@@H](CSC[C@H](NC(=O)CCCCCCCCCCCCC)C(=O)N[C@@H](CO)C(=O)N[C@@H](CCCCN)C(=O)N[C@@H](CCCCN)C(=O)N[C@@H](CCCCN)C(=O)N[C@@H](CCCCN)C(N)=O)C(=O)NCCCCCCCC (Myristoyl-C(X1)SKKKK-NH2)
IC50 (Toll-like receptor 2 [4]): 5 µM

CN(C)CCNc1nc(-c2ccc(N3CCN(C)CC3)cc2)nc2ccccc12
IC50 (Toll-like receptor 9): 3 nM

CCOC(=O)C1=CCCCC1S(=O)(=O)NC1=NCCS1 (centres undefined)
IC50 [5]: > 10000 nM

COCCOc1nc(N)c2nc(NCCCO)n(Cc3ccccc3)c2n1
EC50 (Toll-like receptor 7 [2]): 3200 nM

CCOC(=O)C1=CCCCCC1S(=O)(=O)Nc1ccc(F)cc1Cl (centres undefined)
IC50 [5]: 240 nM

COCCOc1nc(N)c2[nH]c(=O)n(CCCN(Cc3ccc(CC(=O)OC)cc3)C(=O)CCC(=O)OC(C)(C)C)c2n1
EC50 (Toll-like receptor 7 [2]): < 20 nM

CCN(CC)C(=O)N1CC(N)=Nc2ccccc2C1
EC50 (Toll-like receptor 8 [6]): < 100 µM | EC50 (Toll-like receptor 8 [7]): < 100 µM

COCCOc1nc(N)c2nc(N)n(Cc3ccccc3)c2n1
EC50 (Toll-like receptor 7 [2]): > 10000 nM

CCCCCCCCCCCCCCCCCCCC(=O)N[C@@H](COP(=O)(O)OCCNC(=O)[C@@H](NC(=O)Cc1c[nH]c2ccccc12)[C@@H](C)CC)C(=O)NCCC(O)CCCCCCCCCCCCC (some centres undefined)
IC50 (Toll-like receptor 2 [3]): 460 nM | Selectivity ratio (Homo sapiens): > 25

COCCOc1nc(N)c2nc(NN)n(Cc3ccccc3)c2n1
EC50 (Toll-like receptor 7 [2]): 790 nM

CCOC(=O)N1CC(N)=Nc2ccccc2C1
EC50 (Toll-like receptor 8 [6]): < 100 µM | EC50 (Toll-like receptor 8 [7]): < 100 µM

Cc1ccc(Cn2c(=O)[nH]c3c(N)nc(-c4nccs4)cc32)cn1
EC50 (Toll-like receptor 7 [2]): 100 nM

Nc1ccccc1Oc1ccc2c(N)nsc2c1
IC50 (Toll-like receptor 4 [8]): 3 µM | IC50 (Toll-like receptor 4 [9]): 7 µM

CCOC(=O)C1=CCCCC1S(=O)(=O)Nc1ccc(F)cc1Cl (centres undefined)
IC50 [5]: 3.2 nM

CCNc1nc2c(N)nc(OCCOC)nc2n1Cc1ccccc1
EC50 (Toll-like receptor 7 [2]): 4400 nM

COCCOc1nc(N)c2nc(S)n(Cc3cccc(CP(C)(=O)O)c3)c2n1
EC50 (Toll-like receptor 7 [1]): 10 nM | EC50 (Toll-like receptor 7 [2]): 10 nM

CCOC(=O)C1=CCCCC1S(=O)(=O)Nc1ccc(Cl)cc1F (centres undefined)
IC50 [5]: 160 nM

CCCCCCCCCCCCCC(=O)N[C@@H](COP(=O)(O)OCCNC(=O)[C@@H](NC(=O)Cc1ccc(O)cc1)[C@@H](C)C(=O)O)C(=O)NCCC(CCCCCCC)OC(=O)CCCCCCCCCCC (some centres undefined)
IC50 (Toll-like receptor 2 [3]): 900 nM

CCN(CC)c1nc2c(N)nc(OCCOC)nc2n1Cc1ccccc1
Activity [10]: inactive

CCOC(=O)c1ccccc1S(=O)(=O)Nc1ccc(F)cc1Cl
IC50 [5]: > 10000 nM

COCCOc1nc(N)c2[nH]c(=O)n(CCCN(Cc3ccc(CC(=O)OC)cc3)C(=O)CN3CCN(C)CC3)c2n1
EC50 (Toll-like receptor 7 [2]): < 20 nM

CCCCCCCCCCCCCCCC(=O)N[C@@H](COP(=O)(O)OCCNC(=O)[C@@H](NC(=O)Cc1c[nH]c2ccc(-c3ccccc3)cc12)[C@@H](C)CC)C(=O)NCCCOC(=O)CCCCCCCCCCC
IC50 (Toll-like receptor 2 [3]): 230 nM

CCCCCC/C=C\CCCCCCCCCC(=O)N[C@H]1[C@H](OC[C@H]2O[C@H](OP(=O)(O)O)[C@H](NC(=O)CC(=O)CCCCCCCCCCC)[C@@H](OCCCCCCCCCC)[C@@H]2O)O[C@H](COC)[C@@H](OP(=O)(O)O)[C@@H]1OCC[C@@H](CCCCCCC)OC [ERITORAN TETRASODIUM]
IC50 (Toll-like receptor 4 [11]): 1.5 nM | IC50 (Toll-like receptor 4 [12]): 1.5 nM

CCOC(=O)C1=CCCC1S(=O)(=O)Nc1ccc(F)cc1Cl (centres undefined)
IC50 [5]: 110 nM

— ChEMBL document CHEMBL1142478, “Small molecule modulators of toll-like receptors” (J Med Chem, 2008)
